Results taken from PMC5700161, “Structure of human immunoproteasome with a reversible and noncompetitive inhibitor that selectively inhibits activated lymphocytes” (Nature Communications, 2017).
Entries after “also recorded” stand apart in the source; their conditions may differ.

Tests used:
CD19+ non-ASCs = experiment: Apoptosis and viability of CD19+ non-ASCs in ASC differentiation culture; assay type: cell-based
Method: (§1) The immunoproteasome plays important roles in T cell differentiation and proliferation and dendritic cell activation and maturation[14],[20],[24]. However, its role in B cell differentiation is not well understood. […] Differentiated ASCs were then exposed to PKS21221 at indicated concentrations and cell survival was determined with Annexin V and 7-aminoactinomycin D (7-AAD) at three-time points (12-h, 24-h, and 48-h after treatment). […] In addition, the cytotoxicity of PKS21221 to different cell populations in PBMC was examined and compared to the cytotoxicity of bortezomib. PBMCs were incubated with PKS21221 or bortezomib, and the viability was assessed in T cells (CD3^+), B cells (CD19^+), monocytes (CD14^+) and dendritic cells (CD3^−CD19^−CD14^−CD16^−CD11c^+HLA-DR^+), respectively (Supplementary Fig. 13b–e).
(§2) PBMCs were cultured with or without IL-2/R848 for 5 days, followed by 12-h incubation with PKS21221 at different concentrations. a Representative flow cytometry plots of cells treated with IL-2 and R848 in the presence and absence of PKS21221. […] Annexin V^+7-AAD^− cells were referred as “Early apoptosis” population, and Annexin V^+7-AAD^+ cells were referred as “Dead” population. d Percentage of early apoptotic ASCs (left) and dead ASCs (right), after 12-h incubation with PKS21221. […]

PBMCs = experiment: Viability of total PBMCs in ASC differentiation culture (7-AAD); assay type: cell-based
Method: as §1, §2

[1] = molecular target: T1, β5i in Karpas 1106P cells (Homo sapiens, UniProt P20618+P28062); experiment: Intracellular β5i activity in Karpas 1106P cells, (Ac-ANW)2-R110; assay type: cell-based
T1 construct: host or cells: Karpas 1106P
Method: To determine if this class of inhibitors is cell penetrable, we treated the B-cell lymphoma line Karpas 1106P[28] (expressing a high proportion of i-20S over c-20S) with PKS21221 before incubation with either (Ac-ANW)2-R110 (a specific substrate of β5i) or suc-LLVY-luciferin (a substrate of β5) (Fig. 4a). […] No β5i activity was detected in HepG2 cells using (Ac-ANW)2-R110 as a substrate.
Cell viability was determined by CellTiter-glo.
Intracellular proteasomal activity and inhibition assay were performed as reported. Karpas 1106P (80,000 cells per well) were plated and incubated with compound at indicated concentrations for 1 h at 37 °C. The activity of the overall β5 activity including β5i and β5c in each was measured in situ after compound removal with Proteasome-Glo assay kit according to manufacturer’s instructions. Luminescence was recorded on a SpectraMax M5 plate reader. Relative percentage of RLU was used to calculate the IC50s.

[2] = tested on: β5(i+c) in Karpas 1106P cells; experiment: Intracellular β5(i+c) activity in Karpas 1106P cells, suc-LLVY-luciferin; assay type: cell-based
Method: To determine if this class of inhibitors is cell penetrable, we treated the B-cell lymphoma line Karpas 1106P[28] (expressing a high proportion of i-20S over c-20S) with PKS21221 before incubation with either (Ac-ANW)2-R110 (a specific substrate of β5i) or suc-LLVY-luciferin (a substrate of β5) (Fig. 4a).
(§3) Fig. 4 Intracellular proteasome inhibition by PKS21221 and its cytotoxicity against transformed cell lines. a Karpas 1106P lymphoma cells (white and black symbols) or HepG2 cells (blue symbols) were treated with PKS21221 for 2 h at the concentrations indicated prior to incubation with substrate (Ac-ANW)2R110 for β5i (Karpas cells) or suc-LLVY-luciferin for β5 (Karpas cells and HepG2 cells). […] Cell viability was determined by CellTiter-glo. Data are means ± SEM of three to four independent experiments

MM.1S cells = experiment: Cytotoxicity, CellTiter-glo, MM.1S; assay type: cell-based; conditions: 72 h
Method: as §3
(§4) We incubated MM.1S, RPMI 8226, Karpas and HepG2 cells with PKS21221 at different concentrations, and determined cell viability after 72 h (Fig. 4b).
(§5) We used Karpas 1106P B lymphoma cell line (Cat. No. 06072607, Aldrich)[15],[16],[52], HepG2 (HB-8065, ATCC), MM.1S (Cat. No. CRL-2974, ATCC). Cells were cultured at 37 °C in a humidified air/5% CO2 atmosphere in medium supplemented with 10% fetal bovine serum, except for the medium for Karpas 1106P cells which contained 20% fetal bovine serum, and 100 units per ml penicillin, 100 μg per ml streptomycin in RPMI 1640 medium. Karpas 1106P was used at 80,000 cells per well, MM.1S at 100,000 cells per well, and HepG2 at 12,000 cells per well. […] Viable cells were counted using Cell-titer Glo assay kit. EC50s were calculated using PRISM (Graphpad).

HepG2 cells = experiment: Cytotoxicity, CellTiter-glo, HepG2; conditions: read-out: EC50 HepG2, 72 h
Method: as §3, §4, §5

β1c = β1c (Homo sapiens, UniProt P28072); experiment: IC50 against β1c of human constitutive proteasome (Z-LLE-AMC); conditions: read-out: IC50 1c - LLE (β1c); substrate Z-LLE-AMC
Method: (§6) IC50s of all compounds against β5i and β5c (Table 2) and against β1i, β2i, β1c, and β2c (Supplementary Table 1) were determined following reported methods[8].

CD19+CD38+CD27+ ASCs = experiment: Survival and apoptosis of differentiated antibody-secreting cells (ASCs) from PBMC, Annexin V/7-AAD; assay type: cell-based, human
Method: as §1
PBMCs were cultured with or without IL-2/R848 for 5 days, followed by 12-h incubation with PKS21221 at different concentrations. a Representative flow cytometry plots of cells treated with IL-2 and R848 in the presence and absence of PKS21221. […] Annexin V^+7-AAD^− cells were referred as “Early apoptosis” population, and Annexin V^+7-AAD^+ cells were referred as “Dead” population. d Percentage of early apoptotic ASCs (left) and dead ASCs (right), after 12-h incubation with PKS21221.
Human peripheral blood samples were obtained from five different healthy volunteers (BWH Specimen Bank). Peripheral blood mononuclear cells (PBMCs) were isolated by density gradient centrifugation using Lymphoprep (StemCell Technologies). PBMCs were cultured at 1.5 × 10^6 cells per mL in RPMI 1640 media (Lonza), supplemented with 10% human serum (GemCell) (10% HS-RPMI), recombinant human IL-2 10 ng per mL (or 100 U per ml, BioLegend) and R848 1 µg per mL (Cayman Chemicals) for 5 days, at 37 °C, 5% CO2. PKS21221 in DMSO, or DMSO only for control, was added to the culture media on day 5, and cells were incubated for additional 12, 24, and 48 h.

RPMI 8226 cells = experiment: Cytotoxicity, CellTiter-glo, RPMI 8226; assay type: cell-based; conditions: 72 h
Method: as §3, §4, §5

CD19− cells = experiment: Apoptosis and viability of CD19− cells in ASC differentiation culture; assay type: cell-based
Method: as §1, §2

Karpas 1106P cells = experiment: Cytotoxicity, CellTiter-glo, Karpas 1106P; conditions: read-out: EC50 Karpas, 72 h
Method: as §3, §4, §5

β1i = β1i (Homo sapiens, UniProt P28065); experiment: IC50 against β1i of human immunoproteasome (Ac-PAL-AMC); conditions: read-out: IC50 1i - PAL (β1i); substrate Ac-PAL-AMC
Method: as §6

Cc1ccc(S(=O)(=O)N[C@@H](CC(=O)NC(C)(C)C)C(=O)NCCNC(=O)c2cc(-c3ccccc3F)ccc2F)cc1 [PKS21221]
apoptosis of CD19+ non-ASCs (CD19+ non-ASCs): slightly enhanced
viability of CD19+ non-ASCs (CD19+ non-ASCs): did not affect viability
overall viability of PBMCs (PBMCs): not affected; also recorded: did not affect overall viability
IC50 [1]: 0.172 ± 0.033 µM
IC50 [2]: 0.118 ± 0.033 µM
EC50 (MM.1S cells): 0.078 ± 0.03 µM
EC50 (HepG2 cells): 2.32 ± 0.63 µM
IC50 (β1c): > 50 µM
percentage of viable ASC (CD19+CD38+CD27+ ASCs; 12-h, 24-h, 48-h after treatment): decreased with PKS21221 treatment in a dose- and time-dependent manner
ASC percentage in ASC differentiating culture (CD19+CD38+CD27+ ASCs; added for 12 hours on Day 5): decreased the percentage of
EC50 (RPMI 8226 cells): 0.066 ± 0.006 µM
apoptosis of CD19− cells (CD19− cells): no increase
viability of CD19− cells (CD19− cells): did not affect viability
EC50 (Karpas 1106P cells): 0.74 ± 0.145 µM
IC50 (β1i): > 50 µM
